Measurements published in ChEMBL document CHEMBL1201862, “PubChem BioAssay data set” (2004).
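Five concentrations, 48 hours, 96-well plates. At the GI50, growth is halved.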 Activity calls are given as the source filed them. Rule as the data show it: active = GI50 up to about 1.1 µM and inactive = higher.

Columns and labels:
Experiment in all cases: growth of human tumour cells (NCI), 48 h
786-0 = test system: 786-0
CAKI-1 = test system: CAKI-1
HOP-62 = test system: HOP-62
HT-29 = test system: HT-29
M14 = test system: M14
M19-MEL = test system: M19-MEL
MOLT-4 = test system: MOLT-4
NCI-H226 = test system: NCI-H226
NCI-H460 = test system: NCI-H460
SF-295 = test system: SF-295
SK-MEL-2 = test system: SK-MEL-2
SNB-75 = test system: SNB-75
SR = test system: SR
SW-620 = test system: SW-620
UO-31 = test system: UO-31
HCC 2998 = test system: HCC 2998

Measured: GI50

O=Cc1c(O)ccc2ccc(O)c(-c3c(O)ccc4ccc(O)cc34)c12
inactive: 786-0 > 100 µM | CAKI-1 > 100 µM | HOP-62 > 100 µM | HT-29 > 100 µM | M14 > 100 µM | M19-MEL > 100 µM | MOLT-4 > 100 µM | NCI-H226 28.6 µM | NCI-H460 > 100 µM | SF-295 53.1 µM | SK-MEL-2 31.8 µM | SNB-75 88.7 µM | SR 67.9 µM | SW-620 > 100 µM | UO-31 > 100 µM

Cc1c(O)c(=O)ccn1C1OC(CO)C(O)C1O (centres undefined)
inactive: 786-0 85.9 µM | CAKI-1 > 100 µM | HOP-62 > 100 µM | HT-29 > 100 µM | M14 > 100 µM | M19-MEL > 100 µM | MOLT-4 67.1 µM | NCI-H226 > 100 µM | NCI-H460 59.4 µM | SF-295 > 100 µM | SK-MEL-2 > 100 µM | SNB-75 > 100 µM | SR > 100 µM | SW-620 > 100 µM | UO-31 > 100 µM

COc1cc(C(CC(OC)OC)=C(C#N)C#N)cc(OC)c1OC
active: NCI-H226 0.485 µM
inactive: 786-0 21.4 µM | CAKI-1 34.3 µM | HCC 2998 18.7 µM | HT-29 5.6 µM | M19-MEL 12.2 µM | MOLT-4 7.26 µM | NCI-H460 6.52 µM | SF-295 19.5 µM | SK-MEL-2 21.9 µM | SNB-75 22.8 µM | SR 14.5 µM | SW-620 29.7 µM | UO-31 28.1 µM

C/C(CC(=O)Nc1cc(Cl)c(Cl)cc1Cl)=N\NS(=O)(=O)c1ccc(C)cc1
inactive: 786-0 41.9 µM | HCC 2998 35.3 µM | HOP-62 31.8 µM | HT-29 51.3 µM | M14 34.8 µM | M19-MEL 32.7 µM | MOLT-4 29.5 µM | NCI-H226 17.9 µM | NCI-H460 38.8 µM | SF-295 37.1 µM | SK-MEL-2 28.9 µM | SNB-75 32.6 µM | SW-620 58.3 µM | UO-31 21 µM

CS(=O)(=O)OCCN1CCN(C(=O)c2ccc(Cl)c3c(Nc4ccc(S(=O)(=O)N=C(N)N)cc4)c4ccccc4nc23)CC1
inactive: 786-0 > 100 µM | CAKI-1 > 100 µM | HCC 2998 > 100 µM | HOP-62 > 100 µM | HT-29 > 100 µM | M14 > 100 µM | M19-MEL > 100 µM | MOLT-4 > 100 µM | NCI-H226 > 100 µM | NCI-H460 > 100 µM | SF-295 > 100 µM | SK-MEL-2 > 100 µM | SNB-75 > 100 µM | SR > 100 µM | UO-31 > 100 µM

CCN(CC)c1c(C(=O)/C=C/c2ccc(F)cc2)c(-c2ccccc2)nn(C)c1=O
inactive: 786-0 10.3 µM | CAKI-1 11.6 µM | HCC 2998 3.3 µM | HOP-62 11.6 µM | HT-29 6.5 µM | M14 12.1 µM | M19-MEL 6.64 µM | MOLT-4 2.23 µM | NCI-H226 14.7 µM | NCI-H460 4.49 µM | SF-295 12.2 µM | SK-MEL-2 4.66 µM | SNB-75 4.51 µM | SW-620 8.59 µM | UO-31 11.3 µM

CCn1c2ccccc2c2ccc3c(c21)C(=O)C=CC3=O
inactive: 786-0 1.89 µM | HCC 2998 20.9 µM | HOP-62 7.52 µM | HT-29 21 µM | M14 3.93 µM | M19-MEL 10.7 µM | MOLT-4 2.07 µM | NCI-H226 18 µM | NCI-H460 20.2 µM | SF-295 20.4 µM | SK-MEL-2 21.1 µM | SNB-75 29.6 µM | UO-31 10 µM

c1ccc2c(NCCCCCCNc3cccc4ccccc34)cccc2c1
inactive: 786-0 > 100 µM | CAKI-1 > 100 µM | HCC 2998 > 100 µM | HOP-62 > 100 µM | HT-29 > 100 µM | M14 > 100 µM | M19-MEL > 100 µM | MOLT-4 44.3 µM | NCI-H226 > 100 µM | NCI-H460 > 100 µM | SF-295 > 100 µM | SK-MEL-2 > 100 µM | SNB-75 2.77 µM | SW-620 74.5 µM | UO-31 98.2 µM

O=[N+]([O-])c1cccc(C(O)/C(=N/O)c2nc3ccc(Cl)cc3nc2O)c1 (centres undefined)
inactive: 786-0 > 100 µM | HCC 2998 > 100 µM | HOP-62 > 100 µM | HT-29 > 100 µM | M14 > 100 µM | M19-MEL > 100 µM | MOLT-4 > 100 µM | NCI-H226 > 100 µM | NCI-H460 > 100 µM | SF-295 > 100 µM | SNB-75 > 100 µM | SW-620 > 100 µM | UO-31 > 100 µM
